# Measurements reported in ChEMBL document CHEMBL1152855, “Regioselective synthesis of dispiro[1H-indene-2,3'-pyrrolidine-2',3''-[3H]indole]-1,2''(1''H)-diones of potential anti-tumor properties” (2009).
# How the values were obtained:
# [1] = Growth inhibition of human Hs 578T cells at 10 uM after 48 hrs by sulforhodamine B assay; assay type: functional; conditions: values are per cent of control
# Rattus norvegicus [2] = assay: Antiinflammatory activity against carrageenan-induced paw edema in Wister albino rat assessed as inhibition of edema at 50 mg/kg, ip administered 1 hr prior to carrageenan challenge measured after 1 hr relative to control; assay type: functional; conditions: route intraperitoneal
# Rattus norvegicus [3] = assay: Antiinflammatory activity against carrageenan-induced paw edema in Wister albino rat assessed as inhibition of edema at 50 mg/kg, ip administered 1 hr prior to carrageenan challenge measured after 4 hrs relative to indomethacin; assay type: functional; conditions: route intraperitoneal
# HCT-15 = assay: Growth inhibition of human HCT15 cells at 10 uM after 48 hrs by sulforhodamine B assay; assay type: functional; conditions: HCT-15, 48 h, values are per cent of control
# NCI-H460 = assay: Growth inhibition of human NCI-H460 cells at 10 uM after 48 hrs by sulforhodamine B assay; assay type: functional; conditions: NCI-H460, 48 h, values are per cent of control
# HT-29 = assay: Growth inhibition of human HT-29 cells at 10 uM after 48 hrs by sulforhodamine B assay; assay type: functional; conditions: HT-29, 48 h, values are per cent of control
# OVCAR-8 = assay: Growth inhibition of human OVCAR8 cells at 10 uM after 48 hrs by sulforhodamine B assay; assay type: functional; conditions: OVCAR-8, 48 h, read-out: GI
# RPMI-8226 = assay: Growth inhibition of human RPMI8226 cells at 10 uM after 48 hrs by sulforhodamine B assay; assay type: functional; conditions: RPMI-8226, 48 h, read-out: GI
# MOLT-4 = assay: Growth inhibition of human MOLT4 cells at 10 uM after 48 hrs by sulforhodamine B assay; assay type: functional; conditions: MOLT-4, 48 h, values are per cent of control
# K562 = assay: Growth inhibition of human K562 cells at 10 uM after 48 hrs by sulforhodamine B assay; assay type: functional; conditions: K562, 48 h, values are per cent of control
# NCI/ADR-RES = assay: Growth inhibition of human NCI/ADR-RES cells at 10 uM after 48 hrs by sulforhodamine B assay; assay type: functional; conditions: values are per cent of control
# HOP-62 = assay: Growth inhibition of human HOP62 cells at 10 uM after 48 hrs by sulforhodamine B assay; assay type: functional; conditions: HOP-62, 48 h, values are per cent of control
# HCC 2998 = assay: Growth inhibition of human HCC2998 cells at 10 uM after 48 hrs by sulforhodamine B assay; assay type: functional; conditions: HCC 2998, 48 h, values are per cent of control
# SN12C = assay: Growth inhibition of human SN12C cells at 10 uM after 48 hrs by sulforhodamine B assay; assay type: functional; conditions: values are per cent of control
# UACC-62 = assay: Growth inhibition of human UACC62 cells at 10 uM after 48 hrs by sulforhodamine B assay; assay type: functional; conditions: UACC-62, 48 h, values are per cent of control
# Rattus norvegicus [4] = assay: Antiinflammatory activity against carrageenan-induced paw edema in Wister albino rat assessed as inhibition of edema at 50 mg/kg, ip administered 1 hr prior to carrageenan challenge measured after 2 hrs relative to control; assay type: functional; conditions: route intraperitoneal
# SF-268 = assay: Growth inhibition of human SF268 cells at 10 uM after 48 hrs by sulforhodamine B assay; assay type: functional; conditions: SF-268, 48 h, values are per cent of control
# ACHN = assay: Growth inhibition of human ACHN cells at 10 uM after 48 hrs by sulforhodamine B assay; assay type: functional; conditions: values are per cent of control
# SK-OV-3 = assay: Growth inhibition of human SKOV3 cells at 10 uM after 48 hrs by sulforhodamine B assay; assay type: functional; conditions: SK-OV-3, 48 h, values are per cent of control
# SW-620 = assay: Growth inhibition of human SW620 cells at 10 uM after 48 hrs by sulforhodamine B assay; assay type: functional; conditions: SW-620, 48 h, values are per cent of control
# MDA-MB-231 = assay: Growth inhibition of human MDA-MB-231 cells at 10 uM after 48 hrs by sulforhodamine B assay; assay type: functional; conditions: MDA-MB-231, 48 h, values are per cent of control
# NCI-H23 = assay: Growth inhibition of human NCI-H23 cells at 10 uM after 48 hrs by sulforhodamine B assay; assay type: functional; conditions: NCI-H23, 48 h, values are per cent of control
# CCRF-CEM = assay: Growth inhibition of human CCRF-CEM cells at 10 uM after 48 hrs by sulforhodamine B assay; assay type: functional; conditions: values are per cent of control
# KM12 = assay: Growth inhibition of human KM12 cells at 10 uM after 48 hrs by sulforhodamine B assay; assay type: functional; conditions: KM12, 48 h, values are per cent of control
# SK-MEL-28 = assay: Growth inhibition of human SK-MEL-28 cells at 10 uM after 48 hrs by sulforhodamine B assay; assay type: functional; conditions: SK-MEL-28, 48 h, values are per cent of control
# COLO 205 = assay: Growth inhibition of human COLO205 cells at 10 uM after 48 hrs by sulforhodamine B assay; assay type: functional; conditions: COLO 205, 48 h, values are per cent of control
# MCF7 = assay: Growth inhibition of human MCF7 cells at 10 uM after 48 hrs by sulforhodamine B assay; assay type: functional; conditions: MCF7, 48 h, values are per cent of control
# TK-10 = assay: Growth inhibition of human TK10 cells at 10 uM after 48 hrs by sulforhodamine B assay; values are per cent of control; conditions: TK-10, 48 h
# OVCAR-4 = assay: Growth inhibition of human OVCAR4 cells at 10 uM after 48 hrs by sulforhodamine B assay; assay type: functional; conditions: OVCAR-4, 48 h, values are per cent of control
# HOP-92 = assay: Growth inhibition of human HOP92 cells at 10 uM after 48 hrs by sulforhodamine B assay; assay type: functional; conditions: HOP-92, 48 h, read-out: GI
# SNB-19 = assay: Growth inhibition of human SNB19 cells at 10 uM after 48 hrs by sulforhodamine B assay; assay type: functional; conditions: SNB-19, 48 h, values are per cent of control
# LOX IMVI = assay: Growth inhibition of human LOXIMVI cells at 10 uM after 48 hrs by sulforhodamine B assay; assay type: functional; conditions: values are per cent of control
# MDA-MB-435 = assay: Growth inhibition of human MDA-MB-435 cells at 10 uM after 48 hrs by sulforhodamine B assay; assay type: functional; conditions: MDA-MB-435, 48 h, values are per cent of control
# SF-539 = assay: Growth inhibition of human SF539 cells at 10 uM after 48 hrs by sulforhodamine B assay; assay type: functional; conditions: SF-539, 48 h, values are per cent of control
# UO-31 = assay: Growth inhibition of human UO31 cells at 10 uM after 48 hrs by sulforhodamine B assay; assay type: functional; conditions: UO-31, 48 h, values are per cent of control
# DU-145 = assay: Growth inhibition of human DU145 cells at 10 uM after 48 hrs by sulforhodamine B assay; assay type: functional; conditions: DU-145, 48 h, values are per cent of control
# SK-MEL-5 = assay: Growth inhibition of human SK-MEL-5 cells at 10 uM after 48 hrs by sulforhodamine B assay; assay type: functional; conditions: SK-MEL-5, 48 h, values are per cent of control
# A498 = assay: Growth inhibition of human A498 cells at 10 uM after 48 hrs by sulforhodamine B assay; assay type: functional; conditions: A498, 48 h, values are per cent of control
smiles,measurement,setting,value
[3H]C([3H])([3H])N1C(=O)[C@@]2(c3ccccc31)N(C)C[C@@H](c1ccc(Cl)cc1)[C@@]21Cc2ccccc2C1=O,"growth, % of control at 10 µM",[1],55.2%
same,inhibition in vivo at 50 mg/kg,Rattus norvegicus [2],47.2%
same,activity relative to indomethacin,Rattus norvegicus [3],18%
same,"growth, % of control at 10 µM",HCT-15,68.3%
same,"growth, % of control at 10 µM",NCI-H460,67.1%
same,"growth, % of control at 10 µM",HT-29,46.1%
same,inhibition of growth at 10 µM,OVCAR-8,60.9%
same,inhibition of growth at 10 µM,RPMI-8226,13.4%
same,"growth, % of control at 10 µM",MOLT-4,87.5%
same,"growth, % of control at 10 µM",K562,39.5%
same,"growth, % of control at 10 µM",NCI/ADR-RES,79.4%
same,"growth, % of control at 10 µM",HOP-62,88.1%
same,"growth, % of control at 10 µM",HCC 2998,88%
same,"growth, % of control at 10 µM",SN12C,86.5%
same,"growth, % of control at 10 µM",UACC-62,48.4%
same,inhibition in vivo at 50 mg/kg,Rattus norvegicus [4],36.3%
same,"growth, % of control at 10 µM",SF-268,81.1%
same,"growth, % of control at 10 µM",ACHN,82.8%
same,"growth, % of control at 10 µM",SK-OV-3,86.6%
same,"growth, % of control at 10 µM",SW-620,67.8%
same,"growth, % of control at 10 µM",MDA-MB-231,79.3%
same,"growth, % of control at 10 µM",NCI-H23,58%
same,"growth, % of control at 10 µM",CCRF-CEM,108%
same,"growth, % of control at 10 µM",KM12,68.7%
same,"growth, % of control at 10 µM",SK-MEL-28,90.6%
same,"growth, % of control at 10 µM",COLO 205,70.5%
same,"growth, % of control at 10 µM",MCF7,91.8%
same,"growth, % of control at 10 µM",TK-10,140%
same,"growth, % of control at 10 µM",OVCAR-4,72.5%
same,inhibition of growth at 10 µM,HOP-92,25.1%
same,"growth, % of control at 10 µM",SNB-19,89.9%
same,"growth, % of control at 10 µM",LOX IMVI,72.2%
same,"growth, % of control at 10 µM",MDA-MB-435,101%
same,"growth, % of control at 10 µM",SF-539,90.5%
same,"growth, % of control at 10 µM",UO-31,66.1%
same,"growth, % of control at 10 µM",DU-145,91.1%
same,"growth, % of control at 10 µM",SK-MEL-5,87%
same,"growth, % of control at 10 µM",A498,82.3%
[3H]C([3H])([3H])N1C(=O)[C@@]2(c3ccccc31)N(C)C[C@@H](c1ccc(OC)cc1)[C@@]21Cc2ccccc2C1=O,"growth, % of control at 10 µM",[1],-4.27%
same,inhibition in vivo at 50 mg/kg,Rattus norvegicus [2],46.9%
same,activity relative to indomethacin,Rattus norvegicus [3],8%
same,"growth, % of control at 10 µM",HCT-15,89.1%
same,"growth, % of control at 10 µM",NCI-H460,95.4%
same,"growth, % of control at 10 µM",HT-29,66.9%
same,inhibition of growth at 10 µM,OVCAR-8,83.8%
same,inhibition of growth at 10 µM,RPMI-8226,17.7%
same,"growth, % of control at 10 µM",MOLT-4,107%
same,"growth, % of control at 10 µM",K562,85.2%
same,"growth, % of control at 10 µM",NCI/ADR-RES,96%
same,"growth, % of control at 10 µM",HOP-62,88.2%
same,"growth, % of control at 10 µM",HCC 2998,104%
same,"growth, % of control at 10 µM",SN12C,89.1%
same,"growth, % of control at 10 µM",UACC-62,63.1%
same,inhibition in vivo at 50 mg/kg,Rattus norvegicus [4],20.2%
same,"growth, % of control at 10 µM",SF-268,108%
same,"growth, % of control at 10 µM",ACHN,82.8%
same,"growth, % of control at 10 µM",SK-OV-3,99.4%
same,"growth, % of control at 10 µM",SW-620,83.3%
same,"growth, % of control at 10 µM",MDA-MB-231,94.3%
same,"growth, % of control at 10 µM",NCI-H23,84.5%
same,"growth, % of control at 10 µM",CCRF-CEM,72.1%
same,"growth, % of control at 10 µM",KM12,98.2%
same,"growth, % of control at 10 µM",SK-MEL-28,101%
same,"growth, % of control at 10 µM",COLO 205,104%
same,"growth, % of control at 10 µM",MCF7,100%
same,"growth, % of control at 10 µM",TK-10,165%
same,"growth, % of control at 10 µM",OVCAR-4,78.8%
same,inhibition of growth at 10 µM,HOP-92,47.1%
same,"growth, % of control at 10 µM",SNB-19,94.1%
same,"growth, % of control at 10 µM",LOX IMVI,78.5%
same,"growth, % of control at 10 µM",MDA-MB-435,101%
same,"growth, % of control at 10 µM",SF-539,99.9%
same,"growth, % of control at 10 µM",UO-31,75.5%
same,"growth, % of control at 10 µM",DU-145,128%
same,"growth, % of control at 10 µM",SK-MEL-5,88.1%
same,"growth, % of control at 10 µM",A498,95.2%
